Patent publication US20250236614A1, “BICYCLIC TETRAHYDROAZEPINE DERIVATIVES” (Hoffmann-La Roche Inc., priority 2022, published 2025)

Columns and labels:
primary human T-cells [1] = test: T-cell proliferation assay (CellTiter-Glo); type: cell-based; conditions: Homo sapiens, T-cell, 120 h, isomer A; for EC50: CD3 antibody-stimulated T-cells, CellTiter-Glo after 5 days, read-out: Tcell Proliferation CD3 EC50; for Emax: CD3 condition, 5 days, 20 μM reference compound A1 = 100%, DMSO neutral control, read-out: Emax proliferation (% activation)
Experimental: Expanded primary human T-cells are thawed and cultured in RPMI 1640 (Gibco, #61870-010)+5% human serum (HS, Sigma, #H3667)+1 mM Sodium Pyruvate (Gibco, #11360-039)+50 μM 2-mercaptoethanol (Gibco, #31350-010) and 1× Pen-Strep (Life Technologies, #15140122) medium at density of 2 Mio/ml for 3 hours in 5% CO2, 37° C. and 95% humidity. For coating of plates, PBS++ only or PBS++ with CD3 antibody (concentration depending on donor and determined by CD3 titrations) is added 100 μl/well to Poly-D Lysine coated 96-well plates. Plates are sealed and incubated at room temperature for 3 hours on a table-top rocking platform. After incubation, plates are washed once with PBS−− and filled with 40 μl/well culture medium only. Compounds are then added (see next section) to medium only plates. After 3 hours of culturing the T-cells, cells are filtered through a cell strainer (Miltenyi Biotech, #130-041-407), counted again and concentration is adjusted to 1.25 Mio/ml.
Cells are then seeded 80 μl/well to the 40 μl/well including dispensed compounds according to plate layout. By adding cells, compounds are further diluted 1:3, and resulting in 100k cells/120 μl/well. After 48 hours 40 μl of supernatant is collected carefully from the top while not disturbing the cells. Cells are assessed for proliferation 5 days later by measuring […] using CellTiterGlo (Promega).
(§1) Compounds were added in a 5 or 6 pt dose response with the Tecan D300e Digital Dispenser, all conditions 3 times more concentrated than the end-concentration, since cells are added afterwards (80 μl cells to 40 μl prepared medium with treatment). The DR was starting at 20 μM or 10 μM final top concentration and a dilution factor of 3.333. The positive control was the reference compound A1 that was added in a dose response as well, additionally to 3 wells of only 20 μM representing the positive stimulator control. All wells were normalized with DMSO to a final concentration of 0.6% (0.2% end-concentration).
After 5 days, for detection of ATP which is directly proportional to the number of cells present per well, the CellTiter-Glo® 2.0 Reagent is used. After visual control for toxicity or precipitations of the tested compounds, the plates are equilibrated to room temperature for 45 minutes. CellTiter-Glo® 2.0 Reagent is equilibrated to room temperature as well. After equilibration, an equal amount of CellTiter-Glo reagent is added to the cells (80 μl/well) with an electronic multichannel pipette. Plates are placed on a rocking platform for 15 minutes at room temperature. After incubation, the bottom of the plates is sealed with backing tape. Luminescence is measured with PHERAstar FSX (interval time 0.5 sec, gain 3000, focal height 15 mm) and exported as CSV file for analysis in Genedata screener.
CD3 and PBS plates were analysed separately in Genedata Screener using Roche Normalization PCT_POS_CTRL with DMSO set as Neutral Control and 20 μM of the reference compound A1 set as Stimulator Control/100%.
For CD3 conditions EC50 and Emax of the fitted sigmoidal curve were reported. If no curve could be fitted, the EC50 was reported as blank field and the Emax was based on individual data points. […] Compounds which activate unstimulated cells (see IL2 measurements) or compounds which negatively affected viability were flagged.

primary human T-cells [2] = test: IL2 secretion measurements in CD3-stimulated T-cells; type: cell-based; conditions: Homo sapiens, T-cell, isomer A; for EC50: CD3 antibody-stimulated T-cells, IL2 in supernatant after 24 hours, read-out: Tcell IL2 CD3 EC50; for Emax: CD3 condition, 24 hours, 20 μM reference compound A1 = 100%, DMSO neutral control, read-out: Emax IL2 (% activation)
Experimental: As readouts for T-cell activation, IL2 secretion after 24 hours and proliferation after 5 days was measured. Increases in IL2 secretion and proliferation upon compound treatment were assessed as the % of the maximum of reference compound A1. WO 2016/139181 discloses reference compound A1 as example 70. As a counter screen and to make sure that no unwanted TCR-independent activation was triggered, PBS conditions were run for all compounds.
Expanded primary human T-cells were thawed and cultured in RPMI 1640 (Gibco, #61870-010)+5% human serum (HS, Sigma, #H3667)+1 mM Sodium Pyruvate (Gibco, #11360-039)+50 μM 2-mercaptoethanol (Gibco, #31350-010) and lx Pen-Strep (Life Technologies, #15140122) medium at density of 2 Mio/ml for 3 hours in 5% CO2, 37° C. and 95% humidity. For coating of plates, […] or PBS++ with CD3 antibody (concentration depending on donor and determined by CD3 titrations) was added 100 μl/well to Poly-D Lysine coated 96-well plates. Plates were sealed and incubated at room temperature for 3 hours on a table-top rocking platform. After incubation, plates were washed once with PBS−− and filled with 40 μl/well culture medium only. Compounds were then added (see next section) to medium only plates. After 3 hours of culturing the T-cells, cells were filtered through a cell strainer (Miltenyi Biotech, #130-041-407), counted again and concentration was adjusted to 1.25 Mio/ml.
Cells were then seeded 80 μl/well to the 40 μl/well including dispensed compounds according to plate layout. By adding cells, compounds were further diluted 1:3, and resulting in 100k cells/120 μl/well. After 24 hours 40 μl of supernatant was collected carefully from the top while not disturbing the cells and transferred into a round bottom 96 well plate. Collected and frozen supernatant was used for detection of IL2 using the IL-2 Human ProQuantum Immunoassay Kit (Invitrogen) or using the Human IL-2 ELISA Kit (Thermo Fisher).
as §1
The immunoassay is done following the manufacturer's manual (Invitrogen, #A35603).
Additional information: For the immunoassay, MicroAmp™ EnduraPlate™ Optical 384-Well plates are used. Frozen supernatant is thawed and centrifuged for 5 minutes at 1000×g, both steps at 4° C. After centrifugation, required sample amount is taken from the top, and in a separate LightCycler V-bottom plate (working plate) diluted with assay dilution buffer, dilution factor depending on the PBS or CD3 condition but at least 1:3. IL-2 standard and blanks are prepared in the same V-bottom plate, standard with a range of […] (extended version). After preparation, […] of sample dilutions or standard/blanks are transferred to the optical 384-well plate (assay plate) and the 10 μl reaction protocol is being followed. For measurement, the QuantStudio 12K Flex system is used. Raw data is extracted and IL-2 concentrations are calculated with the Thermo Fisher online app (apps.thermofisher.com/apps/proquantum).
ELISA is done following the manufacturer's manual (Thermo Fisher Scientific, #88-7025-88).
Additional information: For the ELISA Nunc MaxiSorp 96 well plates are used. Frozen supernatant is thawed and centrifuged for 5 minutes at 1000×g, both steps at 4° C. After that, required sample amount is taken from the top, and in a separate V-bottom plate diluted with ELISA diluent, dilution factor depending on the PBS or CD3 condition. […]

EC50 (primary human T-cells [2]) [nM]	Compound	EC50 (primary human T-cells [1]) [nM]	Emax (primary human T-cells [1]) [%]	Emax (primary human T-cells [2]) [%]
3790	N[C@@H]1CC(F)(F)c2cc(F)c(-c3nnc(N4CCOC5(CC5)C4)o3)cc2N(Cc2ccc(-c3noc(C(F)(F)F)n3)cc2)C1=O (single isomer, unassigned) [Example 17]	558	115	107
> 2730	CC(C)(C#N)c1nnc(-c2cc3c(cc2F)C(F)(F)C[C@@H](N)C(=O)N3Cc2ccc(-c3ncc(C(F)(F)F)cc3F)cc2)o1 (single isomer, unassigned) [Example 19]	984	85	63
1010	CC(C)(C#N)c1nnc(-c2cc3c(cc2F)C(F)(F)C[C@@H](N)C(=O)N3Cc2ccc(-n3nnc(C(F)(F)F)n3)cc2)o1 (single isomer, unassigned) [Example 20]	205	118	161
7740	N[C@@H]1CC(F)(F)c2cc(F)c(-c3nnc(N4CCCC4)o3)cc2N(Cc2ccc(-n3cnc(C(F)(F)F)n3)cc2)C1=O (single isomer, unassigned) [Example 21]	> 10000	43	63
> 2730	N[C@@H]1CC(F)(F)c2cc(F)c(-c3nnc(N4CCC(F)(F)C4)o3)cc2N(Cc2ccc(-n3cnc(C(F)(F)F)n3)cc2)C1=O (single isomer, unassigned) [Example 22]	2110	62	31
> 2730	CC(C)(c1nnc(-c2cc3c(cc2F)C(F)(F)C[C@@H](N)C(=O)N3Cc2ccc(-n3cnc(C(F)(F)F)n3)cc2)o1)S(C)(=O)=O (single isomer, unassigned) [Example 23]	> 10000	98	42
76.8	CC(C)(C#N)c1nnc(-c2cc3c(cc2F)C(F)(F)C[C@@H](N)C(=O)N3Cc2ccc(-c3ccc(OC(F)(F)F)cn3)cc2)o1 (single isomer, unassigned) [Example 24]	161	129	140
302	CC(C)(c1nnc(-c2cc3c(cc2F)C(F)(F)C[C@@H](N)C(=O)N3Cc2ccc(-c3ccc(OC(F)(F)F)cn3)cc2)o1)S(C)(=O)=O (single isomer, unassigned) [Example 26]	950	155	97
> 2730	CC(C)(C#N)c1nnc(-c2cc3c(cc2F)C(F)(F)C[C@@H](N)C(=O)N3Cc2ccc(-c3cc(C(F)(F)F)ccn3)cc2)o1 (single isomer, unassigned) [Example 27]	598	79	181
678	CC(C)(C#N)c1nnc(-c2cc3c(cc2F)C(F)(F)C[C@@H](N)C(=O)N3Cc2ccc(-c3ccc(C(F)(F)F)cc3)nc2)o1 (single isomer, unassigned) [Example 28]	978	96	73
> 10000	CC(C)(c1nnc(-c2cc3c(cc2F)C(F)(F)C[C@@H](N)C(=O)N3Cc2ccc(-n3cc(C(F)(F)F)cn3)cc2)o1)S(C)(=O)=O (single isomer, unassigned) [Example 29]	91.7	93	48
2610	CC(C)(C#N)c1nnc(-c2cc3c(cc2F)C(F)(F)C[C@@H](N)C(=O)N3Cc2ccc(-n3ccc(C(F)(F)F)n3)cc2)o1 (single isomer, unassigned) [Example 30]	589	94	77
600	CC(C)(c1nnc(-c2cc3c(cc2F)C(F)(F)C[C@@H](N)C(=O)N3Cc2ccc(-c3ccc(C(F)(F)F)cc3)cc2)o1)S(C)(=O)=O (single isomer, unassigned) [Example 32]	2340	81	27
> 10000	COCCN1CC(c2nnc(-c3cc4c(cc3F)C(F)(F)C[C@@H](N)C(=O)N4Cc3ccc(-c4ccc(C(F)(F)F)cn4)cc3)o2)CC(F)(F)C1 (single isomer, unassigned) [Example 34]	1220	75	31
457	CC(F)(F)c1ccc(-c2ccc(CN3C(=O)[C@H](N)CC(F)(F)c4cc(F)c(-c5nnc(C(C)(C)C#N)o5)cc43)cc2)nc1 (single isomer, unassigned) [Example 37]	215	138	136
2080	COc1ccc(-c2ccc(CN3C(=O)[C@H](N)CC(F)(F)c4cc(F)c(-c5nnc(C(C)(C)C#N)o5)cc43)cc2)nc1 (single isomer, unassigned) [Example 38]	1020	105	105

Compound	EC50 (primary human T-cells [2]) [nM]	EC50 (primary human T-cells [1]) [nM]	Emax (primary human T-cells [1]) [%]	Emax (primary human T-cells [2]) [%]
COC(=O)N1CC2CC(c3nnc(-c4cc5c(cc4F)C(F)(F)C[C@@H](N)C(=O)N5Cc4ccc(-c5ccc(C(F)(F)F)cn5)cc4)o3)(C2)C1 (single isomer, unassigned) [Example 35]	216	124	128	94
COC(=O)N1CC2CC(c3nnc(-c4cc5c(cc4F)C(F)(F)C[C@@H](N)C(=O)N5Cc4ccc(Cl)cc4)o3)(C2)C1 (single isomer, unassigned) [Example 36]	856	168	82	53
